Results from patent US20090075887A1, “Treatment with Kallikrein Inhibitors” (GENZYME CORPORATION, priority 2007, published 2009).
Bridges are numbered along the chain shown (N, C = ends). Where no end group is shown, it is not given here.

Molecular target: plasma kallikrein (Homo sapiens, UniProt P03952)
Assay: Inhibition constant for plasma kallikrein
Type: biochemical
Conditions: plasma kallikrein (PK); value used for the dose calculation

Chain of plasma kallikrein (P03952 20-638): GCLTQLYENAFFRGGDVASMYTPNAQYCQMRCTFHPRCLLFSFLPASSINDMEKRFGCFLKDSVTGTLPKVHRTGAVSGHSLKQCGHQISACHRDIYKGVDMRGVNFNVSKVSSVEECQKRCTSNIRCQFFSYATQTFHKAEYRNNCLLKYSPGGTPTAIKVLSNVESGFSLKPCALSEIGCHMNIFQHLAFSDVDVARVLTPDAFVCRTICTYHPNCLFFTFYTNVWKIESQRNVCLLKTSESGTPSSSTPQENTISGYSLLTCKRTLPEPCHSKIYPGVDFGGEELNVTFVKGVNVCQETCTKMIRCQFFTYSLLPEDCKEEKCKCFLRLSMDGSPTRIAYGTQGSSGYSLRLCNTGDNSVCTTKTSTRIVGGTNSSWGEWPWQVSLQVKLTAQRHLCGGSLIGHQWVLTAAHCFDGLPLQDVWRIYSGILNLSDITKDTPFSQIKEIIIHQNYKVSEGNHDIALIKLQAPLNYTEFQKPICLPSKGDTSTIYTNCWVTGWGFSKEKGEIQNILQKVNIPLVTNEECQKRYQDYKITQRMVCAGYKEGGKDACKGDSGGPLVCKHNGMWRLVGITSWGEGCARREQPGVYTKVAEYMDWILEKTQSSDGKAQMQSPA

Ki: 0.044 nM
Sequence: EAMHSFCAFKADDGPCRAAHPRWFFNIFTRQCEEFIYGGCEGNQNRFESLEECKKMCTRD (disulfide 7-57, 16-40, 32-53) [DX88]
